Assay results from patent publication US20240400555A1 (Initial Therapeutics, Inc., priority 2023, published 2024).

These compounds were tested on HCT-116 Firefly-luciferase reporter cells (assay: Cellular c-MYC Reporter Assay). Details: Homo sapiens, HCT-116, 24 h, read-out: pIC50 (converted).
Type: cell-based
Protocol: HCT-116 Firefly-luciferase reporter cells (BPS Bioscience) were seeded in 96-well tissue-culture treated sterile plates (Greiner Bio-One) at 5e4 cells/mL in 100 μL complete growth media (McCoy's 5A+10% FBS, +1% Pen-Strep, +1% G418). Cells were incubated at 37° C. with 5% CO2 for 4-6 h then treated with 3× compound solution in 50 μL complete growth media for a final volume of 150 μL per well with 0.2% DMSO. After 24 h incubation at 37° C. with 5% CO2, plates were allowed to equilibrate to RT for 20 min then developed by addition of 100 μL ONE-Glo Luciferase detection reagent (Promega), incubated at RT for 10 min. Luminescence was recorded using a SpectraMax i3x plate reader (Molecular Devices) and analyzed using Prism GraphPad 9 software.

Compound	IC50 [nM]
Cc1cccc2ccnc(N(C(=O)c3ccc(-n4ncnn4)cc3)[C@@H]3CCCNC3)c12 [Example 234, (R)—N-(8-methylisoquinolin-1-yl)-N-(piperidin-3-yl)-4-(2H-tetrazol-2-yl)benzamide]	398

Same assay, conditions: Homo sapiens; untitled table following Table 8a; HCT-116 Firefly-luciferase reporter cells, 24 h; read-out: pIC50 (converted)

Compound	IC50 [nM]
Cc1cccc2ccnc(N(C(=O)c3ccc(-c4cn(C)nn4)cc3)[C@@H]3CCCNC3)c12 [Example 111, (R)-4-(1-methyl-1H-1,2,3-triazol-4-yl)-N-(8-methylisoquinolin-1-yl)-N-(piperidin-3-yl) benzamide]	513
O=C(c1ccc(-n2nnc3cccnc32)cc1F)N(c1nccc2ccc(/C=C/CO)cc12)[C@@H]1CCCNC1 [Example 135, (R)-4-(3H-[1,2,3]triazolo[4,5-b]pyridin-3-yl)-2-fluoro-N-(7-(3-hydroxyprop-1-en-1-yl)isoquinolin-1-yl)-N-(piperidin-3-yl)benzamide]	575
Cc1cccc2ccnc(N(C(=O)c3ccc(-c4cnn(C)c4)cc3)[C@@H]3CCCNC3)c12 [Example 239, (R)-4-(1-methyl-1H-pyrazol-4-yl)-N-(8-methylisoquinolin-1-yl)-N-(piperidin-3-yl)benzamide]	437
Cc1cccc2ccnc(N(C(=O)c3ccc(-n4nnc5cccnc54)nc3)[C@@H]3CCCNC3)c12 [Example 245, (R)-6-(3H-[1,2,3]triazolo[4,5-b]pyridin-3-yl)-N-(8-methylisoquinolin-1-yl)-N-(piperidin-3-yl)nicotinamide]	155
Cc1cccc2ccnc(N(C(=O)c3ccc(-n4nnc5ccc(C(N)=O)nc54)cc3F)[C@@H]3CCCNC3)c12 [Example 170, (R)-3-(3-fluoro-4-((8-methylisoquinolin-1-yl)(piperidin-3-yl)carbamoyl)phenyl)-3H-[1,2,3]triazolo[4,5-b]pyridine-5-carboxamide]	56.2
Cc1cccc2ccnc(N(C(=O)c3ccc(-c4cnn5cccnc45)cc3F)[C@@H]3CCCNC3)c12 [Example 215, (R)-2-fluoro-N-(8-methylisoquinolin-1-yl)-N-(piperidin-3-yl)-4-(pyrazolo[1,5-a]pyrimidin-3-yl)benzamide]	269
O=C(c1ccc(-n2nnc3cccnc32)cc1F)N(c1ncccc1C1=CCNC1)[C@@H]1CCCNC1 [Example 113, (R)-4-(3H-[1,2,3]triazolo[4,5-b]pyridin-3-yl)-N-(3-(2,5-dihydro-1H-pyrrol-3-yl)pyridin-2-yl)-2-fluoro-N-(piperidin-3-yl)benzamide]	4270
NC(=O)c1ccc2ccnc(N(C(=O)c3ccc(-n4nnc5cccnc54)cc3F)[C@@H]3CCCNC3)c2c1 [Example 155, (R)-1-(4-(3H-[1,2,3]triazolo[4,5-b]pyridin-3-yl)-2-fluoro-N-(piperidin-3-yl)benzamido)isoquinoline-7-carboxamide]	5750
O=C(c1ccc(-n2nnc3cccnc32)cc1F)N(c1ncccc1-c1cnoc1)[C@@H]1CCCNC1 [Example 114, (R)-4-(3H-[1,2,3]triazolo[4,5-b]pyridin-3-yl)-2-fluoro-N-(3-(isoxazol-4-yl)pyridin-2-yl)-N-(piperidin-3-yl)benzamide]	1120
Cc1cccc2ccnc(N(C(=O)c3ccc(-n4nnc5cccnc54)cc3)[C@@H]3CCCNC3)c12 [Example 241, (R)-4-(3H-[1,2,3]triazolo[4,5-b]pyridin-3-yl)-N-(8-methylisoquinolin-1-yl)-N-(piperidin-3-yl)benzamide]	60.3
CCOC(=O)/C=C/c1ccc2c(N(C(=O)c3ccc(-n4nnc5cccnc54)cc3F)[C@@H]3CCCNC3)nccc2c1 [Example 98, ethyl (R,E)-3-(1-(4-(3H-[1,2,3]triazolo[4,5-b]pyridin-3-yl)-2-fluoro-N-(piperidin-3-yl)benzamido)isoquinolin-6-yl)acrylate]	759
CN1CCC(C2CCN(C(=O)N(c3cc4ccccc4cn3)[C@@H]3CCCNC3)CC2)C1 (stereo partly drawn) [Example 256, N-(isoquinolin-3-yl)-4-(1-methylpyrrolidin-3-yl)-N—((R)-piperidin-3-yl)piperidine-1-carboxamide]	9120
Cc1cc(C2CCN(C(=O)N(c3nccc4cccc(C)c34)[C@@H]3CCCCNC3)CC2)on1 [Example 181, (R)—N-(azepan-3-yl)-N-(8-methylisoquinolin-1-yl)-4-(3-methylisoxazol-5-yl)piperidine-1-carboxamide]	11000
Cc1cccc2ccnc(N(C(=O)c3ccc(Nc4cccn(C)c4=O)cc3F)[C@@H]3CCCNC3)c12 [Example 131, (R)-2-fluoro-4-((1-methyl-2-oxo-1,2-dihydropyridin-3-yl)amino)-N-(8-methylisoquinolin-1-yl)-N-(piperidin-3-yl)benzamide]	1910
Cc1cccc2ccnc(N(C(=O)N3CCC(c4cc(C(F)F)no4)CC3)[C@@H]3CCCNC3)c12 [Example 250, (R)-4-(3-(difluoromethyl)isoxazol-5-yl)-N-(8-methylisoquinolin-1-yl)-N-(piperidin-3-yl)piperidine-1-carboxamide]	813
Cc1cccc2ccnc(N(C(=O)c3ccc(-c4cnccn4)cc3F)[C@@H]3CCCNC3)c12 [Example 204, (R)-2-fluoro-N-(8-methylisoquinolin-1-yl)-N-(piperidin-3-yl)-4-(pyrazin-2-yl)benzamide]	479
Cc1cccc2ccnc(N(C(=O)c3ccc(-n4nnc5cccnc54)cc3)[C@@H]3CCNC3)c12 [Example 232, (R)-4-(3H-[1,2,3]triazolo[4,5-b]pyridin-3-yl)-N-(8-methylisoquinolin-1-yl)-N-(pyrrolidin-3-yl)benzamide]	8510
COc1ccc2c(N(C(=O)c3ccc(-n4nnc5cccnc54)cc3F)[C@@H]3CCCNC3)nccc2c1 [Example 145, (R)-4-(3H-[1,2,3]triazolo[4,5-b]pyridin-3-yl)-2-fluoro-N-(6-methoxyisoquinolin-1-yl)-N-(piperidin-3-yl)benzamide]	525
O=C(c1ccc(-n2nnc3cccnc32)cc1F)N(c1nccc2ccc(C#CCO)cc12)[C@@H]1CCCNC1 [Example 103, (R)-4-(3H-[1,2,3]triazolo[4,5-b]pyridin-3-yl)-2-fluoro-N-(7-(3-hydroxyprop-1-yn-1-yl)isoquinolin-1-yl)-N-(piperidin-3-yl)benzamide]	776
O=C(c1ccc(-n2nnc3cccnc32)cc1F)N(c1ncccc1-c1ccsc1)[C@@H]1CCCNC1 [Example 177, (R)-4-(3H-[1,2,3]triazolo[4,5-b]pyridin-3-yl)-2-fluoro-N-(piperidin-3-yl)-N-(3-(thiophen-3-yl)pyridin-2-yl)benzamide]	355
O=C(c1ccc(-n2nnc3cccnc32)cc1F)N(c1nccc2sc(-c3cn[nH]c3)cc12)[C@@H]1CCCNC1 [Example 160, (R)—N-(2-(1H-pyrazol-4-yl)thieno[3,2-c]pyridin-4-yl)-4-(3H-[1,2,3]triazolo[4,5-b]pyridin-3-yl)-2-fluoro-N-(piperidin-3-yl)benzamide]	447
Cn1cc(-c2cccnc2N(C(=O)c2ccc(-n3nnc4cccnc43)cc2F)[C@@H]2CCCNC2)cn1 [Example 115, (R)-4-(3H-[1,2,3]triazolo[4,5-b]pyridin-3-yl)-2-fluoro-N-(3-(1-methyl-1H-pyrazol-4-yl)pyridin-2-yl)-N-(piperidin-3-yl)benzamide]	550
Cc1ccc2nnn(-c3ccc(C(=O)N(c4nccc5ccn(C)c45)[C@@H]4CCCNC4)c(F)c3)c2n1 [Example 209, (R)-2-fluoro-N-(1-methyl-1H-pyrrolo[2,3-c]pyridin-7-yl)-4-(5-methyl-3H-[1,2,3]triazolo[4,5-b]pyridin-3-yl)-N-(piperidin-3-yl)benzamide]	141
CCCc1nnn(-c2ccc(C(=O)N(c3nccc4cccc(C)c34)[C@@H]3CCCNC3)c(F)c2)n1 [Example 286, (R)-2-fluoro-N-(8-methylisoquinolin-1-yl)-N-(piperidin-3-yl)-4-(5-propyl-2H-tetrazol-2-yl) benzamide]	195
O=C(c1ccc(-n2nnc3cccnc32)cc1F)N(c1nccc2cc(Br)ccc12)[C@@H]1CCCNC1 [Example 143, (R)-4-(3H-[1,2,3]triazolo[4,5-b]pyridin-3-yl)-N-(6-bromoisoquinolin-1-yl)-2-fluoro-N-(piperidin-3-yl)benzamide]	724
O=C(c1ccc(-n2nnc3cccnc32)cc1F)N(c1ncccc1/C=C/CO)[C@@H]1CCCNC1 [Example 289, (R,E)-4-(3H-[1,2,3]triazolo[4,5-b]pyridin-3-yl)-2-fluoro-N-(3-(3-hydroxyprop-1-en-1-yl)pyridin-2-yl)-N-(piperidin-3-yl)benzamide]	> 5890
Cc1cccc2ccnc(N(C(=O)c3ncc(-n4nnc5cccnc54)cc3F)[C@@H]3CCCNC3)c12 [Example 201, (R)-5-(3H-[1,2,3]triazolo[4,5-b]pyridin-3-yl)-3-fluoro-N-(8-methylisoquinolin-1-yl)-N-(piperidin-3-yl)picolinamide]	148
CCc1nnn(-c2ccc(C(=O)N(c3nccc4cccc(C)c34)[C@@H]3CCCNC3)c(F)c2)n1 [Example 142, (R)-4-(5-ethyl-2H-tetrazol-2-yl)-2-fluoro-N-(8-methylisoquinolin-1-yl)-N-(piperidin-3-yl)benzamide]	79.4
Cc1cn(-c2ccc(C(=O)N(c3nccc4cccc(C)c34)[C@@H]3CCCNC3)cc2)nn1 [Example 236, (R)-4-(4-methyl-1H-1,2,3-triazol-1-yl)-N-(8-methylisoquinolin-1-yl)-N-(piperidin-3-yl)benzamide]	166
Cc1cccc2ccnc(N(C(=O)c3cccc(Cn4nccn4)c3F)[C@@H]3CCCNC3)c12 [Example 282, (R)-3-((2H-1,2,3-triazol-2-yl)methyl)-2-fluoro-N-(8-methylisoquinolin-1-yl)-N-(piperidin-3-yl)benzamide]	4170
